Results taken from article PMC7829762, “Characterization of a Novel Laccase LAC-Yang1 from White-Rot Fungus Pleurotus ostreatus Strain Yang1 with a Strong Ability to Degrade and Detoxify Chlorophenols” (Molecules, 2021).

System: T1, LAC-Yang1
T1 construct: native enzyme purified from culture supernatant (Cu2+ and syringic acid induced; ammonium sulfate, DEAE, Phenyl-6FF); only laccase band secreted by this strain
Assay: absorbance assay, Michaelis-Menten non-linear regression
Assay type: biochemical, Pleurotus ostreatus
Details: 50 mM acetate buffer pH 5.0, 30 °C, free enzyme
Text: absorbance assay, Michaelis-Menten non-linear regression on LAC-Yang1

2,6-Dimethylphenol [2,6-DMP]
Km (470 nm, compound identity doubtful: paper spells 2,6-DMP as 2,6-Dimethylphenol, but 470 nm read-out is usual for 2,6-dimethoxyphenol): 120 ± 30 µM

CCn1c(=NN=c2sc3cc(S(=O)(=O)O)ccc3n2CC)sc2cc(S(=O)(=O)O)ccc21 [ABTS, 2,2′-azino-bis-(3-ethylbenzothiazoline-6-sulfonic acid)]
Km (420 nm): 150 ± 50 µM

COc1ccccc1O [guaiacol]
Km (465 nm): 810 ± 150 µM
